PubChem BioAssay (NCI)
“And” between values parts separate entries of the source, which are not always exact repeats. Identical values can stand only once.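 Briefly, cells in 96-well plates were exposed to five compound concentrations for 48 h, and endpoints were estimated by linear interpolation. GI50 is the concentration that inhibits growth by half. TGI: total growth inhibition.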

Columns and labels:
Assay in all cases: NCI-60 cell line screen, 48 h
UACC-257 melanoma = tested on: UACC-257 melanoma
NCI-H522 lung = tested on: NCI-H522 lung
HOP-92 NSCLC = tested on: HOP-92 NSCLC
OVCAR-4 ovarian = tested on: OVCAR-4 ovarian
HCT-15 colon = tested on: HCT-15 colon
HOP-62 NSCLC = tested on: HOP-62 NSCLC
SF-295 CNS = tested on: SF-295 CNS
TK-10 renal = tested on: TK-10 renal
786-0 renal = tested on: 786-0 renal
RXF 393 renal = tested on: RXF 393 renal

SMILES	GI50 (UACC-257 melanoma)	TGI (UACC-257 melanoma)	GI50 (NCI-H522 lung)	GI50 (HOP-92 NSCLC)	TGI (HOP-92 NSCLC)	GI50 (OVCAR-4 ovarian)	TGI (OVCAR-4 ovarian)	GI50 (HCT-15 colon)	TGI (HCT-15 colon)	GI50 (HOP-62 NSCLC)	GI50 (SF-295 CNS)	TGI (TK-10 renal)	GI50 (786-0 renal)	GI50 (RXF 393 renal)	TGI (RXF 393 renal)	TGI (NCI-H522 lung)	TGI (HOP-62 NSCLC)	TGI (SF-295 CNS)	GI50 (TK-10 renal)	TGI (786-0 renal)
COc1ccc(C2=C(c3ccc(OC)c(OC)c3)C(=O)OC2)cc1	> 47.4 µM	> 100 µM	< 0.0406 µM	3.48 µM	32.6 µM	> 58.4 µM	> 100 µM	< 0.01 µM	28.6 µM	< 0.01 µM	< 0.0496 µM	16.5 µM	< 0.01 µM	0.0792 µM	> 100 µM	–	–	–	–	–
O=C(Nc1ccc(F)cc1F)c1cc(Br)ccc1O	1.86 µM	7.24 µM	2.83 µM	0.593 µM	3.9 µM	2.1 µM	92 µM	3.04 µM	17.3 µM	2.69 µM	1.9 µM	> 100 µM	3.13 µM	2.4 µM	7.03 µM	39.9 µM	12.7 µM	3.76 µM	4.83 µM	10.2 µM
NC1CCCCC1N.O=S(=O)([O-])CCCN1CCOCC1.O=S(=O)([O-])CCCN1CCOCC1.[Pt+4]	54.6 µM	> 100 µM	4.64 µM	32.4 µM	> 100 µM	> 29.7 µM	> 100 µM	8.4 µM	> 56.6 µM	> 100 µM	15.5 µM	> 100 µM	5.7 µM	> 49.4 µM	> 100 µM	20.6 µM	> 100 µM	> 100 µM	> 100 µM	> 100 µM
CC1(C)CC(n2cnc(-c3ccc(F)cc3)c2-c2ccnc(N)n2)CC(C)(C)N1	> 25 µM	> 25 µM	17.6 µM	7.19 µM	> 25 µM	7.54 µM	> 25 µM	17.7 µM	> 25 µM	> 16.8 µM	> 25 µM	> 25 µM	> 25 µM	> 24.1 µM	> 25 µM	> 25 µM	> 25 µM	> 25 µM	16.1 µM	> 25 µM
Cc1cccc(C)c1NC(=O)CCc1nnc2s/c(=C\c3ccc(Cl)cc3)c(=O)n12	–	> 100 µM	–	–	> 100 µM	–	> 100 µM	–	36.2 µM	–	–	> 100 µM	–	–	> 100 µM	> 100 µM	> 100 µM	> 100 µM	–	> 100 µM
C[C@]12CC[C@H](OCCC#N)CC1=CC[C@@H]1C2CC[C@]2(C)/C(=N/OCCC#N)CCC12 (stereo not given in full)	–	> 100 µM	–	–	> 64.4 µM	–	97.7 µM	–	> 100 µM	–	–	> 88.6 µM	–	–	> 73.9 µM	> 100 µM	> 100 µM	> 100 µM	–	> 76.6 µM
Cc1cc(-c2nnc(N)nc2-c2ccc(F)cc2)cc(Cl)n1	78.9 µM	> 100 µM	55.9 µM	11.5 µM	> 100 µM	97.3 µM	> 100 µM	> 100 µM	> 100 µM	> 100 µM	72.7 µM	> 100 µM	> 100 µM	87.2 µM	> 100 µM	> 100 µM	> 100 µM	> 100 µM	42.6 µM	> 100 µM
C=CCN1C=CC(=O)[C@H](O[Si](C)(C)C(C)(C)C)[C@@H]1/C=C/c1ccccc1	17.9 µM	37.2 µM	13 µM	7.05 µM	21.1 µM	11.6 µM	24.7 µM	12.5 µM	25.6 µM	15.1 µM	9.9 µM	28.5 µM	15.4 µM	19 µM	46.1 µM	28.3 µM	28.9 µM	24.9 µM	14 µM	29.4 µM
CC[Si](CC)(CC)OC[C@]1([C@@H]2COC(C)(C)O2)CC=CC(=O)O1	32.2 µM	> 100 µM	35.4 µM	19.7 µM	> 100 µM	85.8 µM	> 100 µM	35.7 µM	> 100 µM	57.8 µM	35.2 µM	79 µM	38.1 µM	48 µM	> 100 µM	> 100 µM	> 100 µM	> 100 µM	24.2 µM	> 100 µM
Cc1occc1C(=S)Nc1ccc(Cl)c(/C=N/OC(C)C)c1	–	47.6 µM	–	–	37.4 µM	–	> 59.7 µM	–	42.8 µM	–	–	55.8 µM	–	–	56.4 µM	28.5 µM	> 60.9 µM	41.9 µM	–	43.8 µM
CCOC(=O)NC(=O)c1cn(CCCOC(=O)CCCCCCCCCCC(=O)OCCCn2cc(C(=O)NC(=O)OCC)c(=O)n(C)c2=O)c(=O)n(C)c1=O	–	> 100 µM	–	–	> 100 µM	–	> 100 µM	–	> 100 µM	–	–	> 100 µM	–	–	> 100 µM	> 100 µM	> 100 µM	> 100 µM	–	> 100 µM
C=C1C(=O)[C@@]23CC1C(O)[C@@H](OC(C)=O)[C@@H]2C1(C)C(OC(C)=O)C[C@@H](OC(C)=O)C(C)(C)[C@@H]1C[C@H]3OC(C)=O (stereo not given in full)	3.55 µM and 2.25 µg/mL	> 10 µM and 5.06 µg/mL	1.31 µM and 0.288 µg/mL	3.6 µM and 1.95 µg/mL	> 10 µM and 3.84 µg/mL	> 10 µM and 8.36 µg/mL	> 10 µM and 22.1 µg/mL	2.69 µg/mL	> 10 µM and 8.61 µg/mL	19.2 µg/mL	> 10 µM and 11.6 µg/mL	> 10 µM and 5.15 µg/mL	1.81 µg/mL	362 nM and 1.8 µg/mL	4.21 µM and 5.35 µg/mL	2.64 µM and 1.44 µg/mL	> 10 µM and 34.9 µg/mL	> 10 µM and 25.6 µg/mL	> 10 µM and 2.29 µg/mL	> 10 µM and 3.97 µg/mL
NC(=O)c1ccc2c(-c3ccnc(NCCCO)n3)c(-c3ccc(F)cc3)nn2c1	> 25 µM	> 25 µM	> 25 µM	> 25 µM	> 25 µM	> 25 µM	> 25 µM	> 25 µM	> 25 µM	> 25 µM	> 25 µM	> 25 µM	> 25 µM	21.4 µM	> 25 µM	> 25 µM	> 25 µM	> 25 µM	> 18.6 µM	> 25 µM
COC(=O)C12CC(c3ccccc31)C1C(=O)OC(=O)C12 (stereo not given)	–	> 100 µM	–	–	> 100 µM	–	> 100 µM	–	> 100 µM	–	–	> 100 µM	–	–	> 100 µM	> 100 µM	> 100 µM	> 100 µM	–	> 100 µM
